BindingDB's records for doi:10.1016/j.bmc.2014.05.025 (University of California, 2014)

Molecular target: T1, Polyunsaturated fatty acid lipoxygenase ALOX12 (Homo sapiens, UniProt P18054)
T1 sequence (P18054 whole entry): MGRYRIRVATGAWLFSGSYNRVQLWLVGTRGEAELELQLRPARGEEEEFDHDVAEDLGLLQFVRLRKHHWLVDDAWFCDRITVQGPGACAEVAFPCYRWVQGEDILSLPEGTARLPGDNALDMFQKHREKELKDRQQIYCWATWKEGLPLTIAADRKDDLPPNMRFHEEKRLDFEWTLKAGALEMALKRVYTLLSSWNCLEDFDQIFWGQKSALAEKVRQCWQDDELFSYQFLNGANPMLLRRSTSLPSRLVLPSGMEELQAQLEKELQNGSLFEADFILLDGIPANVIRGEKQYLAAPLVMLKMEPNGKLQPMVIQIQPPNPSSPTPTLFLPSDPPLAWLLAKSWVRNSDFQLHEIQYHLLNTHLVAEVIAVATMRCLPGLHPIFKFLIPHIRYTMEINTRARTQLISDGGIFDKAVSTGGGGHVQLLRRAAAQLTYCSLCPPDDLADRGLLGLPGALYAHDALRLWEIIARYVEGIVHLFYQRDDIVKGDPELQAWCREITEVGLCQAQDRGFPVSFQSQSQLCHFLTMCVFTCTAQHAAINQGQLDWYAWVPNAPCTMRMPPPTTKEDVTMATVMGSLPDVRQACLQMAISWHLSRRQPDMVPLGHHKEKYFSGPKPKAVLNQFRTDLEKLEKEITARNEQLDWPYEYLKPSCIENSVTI
Assay: Mixed type inhibition of human platelet 12-lipoxygenase assessed as equilibrium inhibitor constant of dissociation from enzyme by measuring 12-HpETE formation in presence of 0.01% Triton-X-100 by Dixon plot based steady-state inhibition kinetics assay

Question: With `CCCCCC(=O)C=CC=CC/C=C\C/C=C\CCCC(=O)O` [(5Z,8Z,11Z,13E)-15-oxoicosa-5,8,11,13-tetraenoic acid] as the compound, how does the Ki read?
Answer: 87 nM
